Assay results: US8399674B2, “Quinolines” (Hoffman-La Roche Inc., priority 2007, dated 2013)

What was measured:
[1] = biological target: T1, recombinant human 5-HT5A receptor (Homo sapiens, UniProt P47898); assay: [3H]LSD radioligand binding assay, membranes of HEK-EBNA cells transiently expressing the receptor; settings: [3H]LSD approx. 1 nM, 120 min room temperature, Ki from IC50 by Cheng-Prussoff equation, read-out: Ki (affinity towards the human 5-HT5A receptor)
T1 construct: expressed in transfected cells; host or cells: HEK-EBNA (Human Embryonic Kidney-EBNA) cells, transient transfection; membranes
T1 sequence (P47898 whole entry): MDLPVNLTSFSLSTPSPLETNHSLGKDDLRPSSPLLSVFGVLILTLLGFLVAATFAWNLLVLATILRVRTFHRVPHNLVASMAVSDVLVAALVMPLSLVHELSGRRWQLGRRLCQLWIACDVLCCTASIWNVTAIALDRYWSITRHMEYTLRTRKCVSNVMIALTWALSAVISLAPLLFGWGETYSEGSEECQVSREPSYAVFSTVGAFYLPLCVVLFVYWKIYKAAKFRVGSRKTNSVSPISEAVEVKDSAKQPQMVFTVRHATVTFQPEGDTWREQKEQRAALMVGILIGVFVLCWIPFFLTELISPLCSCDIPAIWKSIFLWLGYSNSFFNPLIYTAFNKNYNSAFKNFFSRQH
Experimental: A [^3H] LSD radioligand binding assay was used to determine the affinity of the compounds for the recombinant human 5-HT5A receptor, in membranes from transiently (cDNA) expressed 5-HT5A receptors in Human Embryonic Kidney-EBNA (HEK-EBNA) cells.
Assay buffer consisted of Tris (50 mM) buffer containing 1 mM EGTA, 10 mM MgCl2 (pH 7.4) and 10 μM pargyline. The binding assay was carried out in 96-well-plates in the presence of [^3H]LSD (approximately 1 nM), approximately 2 μg/well of membrane protein, and 0.5 mg of Ysi-poly-1-lysine SPA beads in a final volume of 200 μl of buffer. Non-specific binding was defined using methiothepin 2 μM. Compounds were tested at 10 concentrations. All assays were conducted in duplicate and repeated at least two times. Assay plates were incubated for 120 min at room temperature before centrifugation. Bound ligand was determined using a Packard Topcount scintillation counter. IC50 values were calculated using a non-linear curve fitting program and Ki values calculated using the Cheng-Prussoff equation.

| SMILES | melting point | Ki [1] |
| --- | --- | --- |
| COc1ccccc1CNc1ccc2cc(Nc3nc(C)no3)ccc2n1 [Example 86, N2-(2-Methoxy-benzyl)-N6-(3-methyl-[1,2,4]oxadiazol-5-yl)-quinoline-2,6-diamine] | 175 °C | – |
| COc1ccccc1CNc1ccc2cc(Nc3ccccn3)ccc2n1 [Example 92, N2-(2-Methoxy-benzyl)-N6-pyridin-2-yl-quinoline-2,6-diamine] | 134 °C | 34 nM |
| COc1ccccc1CNc1ccc2cc(Nc3nnc(C)o3)ccc2n1 [Example 85, N2-(2-Methoxy-benzyl)-N6-(5-methyl-[1,3,4]oxadiazol-2-yl)-quinoline-2,6-diamine] | 183 °C | – |
| CCn1nnc(Nc2ccc3nc(NCc4ccccc4OC)ccc3c2)n1 [Example 87, N6-(2-Ethyl-2H-tetrazol-5-yl)-N2-(2-methoxy-benzyl)-quinoline-2,6-diamine] | 190 °C | 44 nM |
| COc1ccccc1CNc1ccc2cc(Nc3nnn(C(C)(C)C)n3)ccc2n1 [Example 95, N6-(2-tert-Butyl-2H-tetrazol-5-yl)-N2-(2-methoxy-benzyl)-quinoline-2,6-diamine] | 156 °C | – |
| COc1ccccc1CNc1ccc2cc(Nc3ncccc3C)ccc2n1 [Example 91, N2-(2-Methoxy-benzyl)-N6-(3-methyl-pyridin-2-yl)-quinoline-2,6-diamine] | 163 °C | – |
| COc1ccccc1CNc1ccc2cc(Nc3ncco3)ccc2n1 [Example 100, N2-(2-Methoxy-benzyl)-N6-oxazol-2-yl-quinoline-2,6-diamine] | 205 °C | – |
| COc1ccccc1CNc1ccc2cc(Nc3cccc(C(F)(F)F)n3)ccc2n1 [Example 101, N2-(2-Methoxy-benzyl)-N6-(6-trifluoromethyl-pyridin-2-yl)-quinoline-2,6-diamine] | 151 °C | – |
| COc1ccccc1CNc1ccc2cc(Nc3cc(C)on3)ccc2n1 [Example 88, N2-(2-Methoxy-benzyl)-N6-(5-methyl-isoxazol-3-yl)-quinoline-2,6-diamine] | 132 °C | 26 nM |
| COc1ccccc1CNc1ccc2cc(Nc3nc(C)cc(C)n3)ccc2n1 [Example 89, N6-(4,6-Dimethyl-pyrimidin-2-yl)-N2-(2-methoxy-benzyl)-quinoline-2,6-diamine] | 157.5 °C | – |
| COc1ccccc1CNc1ccc2cc(Nc3nc(C(F)(F)F)co3)ccc2n1 [Example 98, N2-(2-Methoxy-benzyl)-N6-(4-trifluoromethyl-oxazol-2-yl)-quinoline-2,6-diamine] | 144 °C | – |
| COc1ccccc1CNc1ccc2cc(Nc3nnc(C4CC4)o3)ccc2n1 [Example 96, N6-(5-Cyclopropyl-[1,3,4]oxadiazol-2-yl)-N2-(2-methoxy-benzyl)-quinoline-2,6-diamine] | 199 °C | 47 nM |
| COc1ccccc1CNc1ccc2cc(Nc3nccc(C(F)(F)F)n3)ccc2n1 [Example 94, N2-(2-Methoxy-benzyl)-N6-(4-trifluoromethyl-pyrimidin-2-yl)-quinoline-2,6-diamine] | 114 °C | 30 nM |
| COc1ccccc1CNc1ccc2cc(Nc3nnc(C(F)(F)F)o3)ccc2n1 [Example 97, N2-(2-Methoxy-benzyl)-N6-(5-trifluoromethyl-[1,3,4]oxadiazol-2-yl)-quinoline-2,6-diamine] | 198 °C | – |
| COc1ccccc1CNc1ccc2cc(Nc3nccc(C)n3)ccc2n1 [Example 90, N2-(2-Methoxy-benzyl)-N6-(4-methyl-pyrimidin-2-yl)-quinoline-2,6-diamine] | 125 °C | 33 nM |
| COc1ccccc1CNc1ccc2cc(Nc3ncccn3)ccc2n1 [Example 84, N2-(2-Methoxy-benzyl)-N6-pyrimidin-2-yl-quinoline-2,6-diamine] | 175 °C | – |
| COc1ccccc1CNc1ccc2cc(Nc3ncc(C(F)(F)F)o3)ccc2n1 [Example 99, N2-(2-Methoxy-benzyl)-N6-(5-trifluoromethyl-oxazol-2-yl)-quinoline-2,6-diamine] | 166 °C | – |
| COc1ccccc1CNc1ccc2cc(Nc3nc4cc(C)ccc4o3)ccc2n1 [Example 102, N2-(2-Methoxy-benzyl)-N6-(5-methyl-benzooxazol-2-yl)-quinoline-2,6-diamine] | 220 °C | – |
